Results taken from the supplement of paper PMC10949913.

Experiments:
Assay in all cases: area under concentration-response curve (viability) (AUC (a.u.)); higher = less active
Settings in all cases: 48 h
[1] = system: NCI-H295R
Method in brief: (§1)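 Concentration-response curves were fitted to obtain AC50 and area under the curve, keeping inhibitory or non-responding curve classes only. Data came from CellTiter-Glo luminescence, normalised per plate to vehicle and empty-well controls, in three adrenocortical carcinoma cell lines. These were treated in 1,536-well plates with library compounds at 11 concentrations and read after 48 h.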

[2] = system: CU-ACC1
Method in brief: as §1

[3] = system: CU-ACC2
Method in brief: as §1

Structure (SMILES)	area under concentration-response curve [1]	area under concentration-response curve [2]	area under concentration-response curve [3]
COCCNc1cc(NC(=O)N2CCCc3cc(CN4CCN(C)CC4=O)c(C=O)nc32)ncc1C#N	564	552	550
COc1ccc2[nH]c(C(=O)N3CCC(CC(C)(C)O)CC3)cc2c1	572	484	609
O[C@@H]1C\C(=C/C(O)C1O)C(O)=O (stereo partly drawn)	581	512	614
C[C@@H](CN1CC(=O)NC(=O)C1)N1CC(=O)NC(=O)C1	478	516	588
C[S+]([O-])(=O)C1=CC=C(C=C1)C/2=C(/C(=O)OC2)C3=CC=CC=C3	424	407	467
OC[C@H]1O[C@@H]2[C@@H](OC\3=N\C(=N)\C=C/[N@@]23)[C@@H]1O	472	488	504
CCOC(=O)c1c(C)n(C)c2ccc(O)cc12	520	536	593
OC1=CC2=C(C(=C1)O)C(=O)\C(=C(/O2)C3=CC(=C(O)C(=C3)O)O)O	508	553	600
C[C@@H](N)[C@H]1CC[C@H](C(=O)Nc2ccncc2)CC1	448	472	487
CC1=C(F)C=CC(=C1)N2C(=O)\C=C/C3=C2C4=C([NH]C=C4)N=C3	527	519	509
C[C@@H](c1ccc2nccn2c1)n1nnc2ncc(-c3cnn(C)c3)nc21	512	481	582
CC[S+](=O)([O-])c1ccc2oc(-c3ccc4ccccc4c3)nc2c1	514	538	602
N#Cc1ccc(C2CCCc3cncn32)cc1 (stereo not drawn)	479	503	544
OC1=CC2=C(C(=O)\C=C(/O2)C3=CC=CC=C3)C(=C1O)O	489	458	462
O=C1C[C@@H](c2ccc(O)cc2)Oc2cc(O)cc(O)c21	485	345	484
Nc1cc(COc2c(Cl)cc(C[C@H](N)C(=O)O)cc2Cl)c2oc(-c3ccccc3)nc2c1	588	488	577
CC(C(=O)O)c1ccc2c(c1)CC(=O)c1ccccc1S2 (stereo not drawn)	497	535	554
O=C(N[C@H]1CN2CCC1CC2)c1ccc(Cl)cc1	554	495	616

Structure (SMILES)	area under concentration-response curve [1]	area under concentration-response curve [2]	area under concentration-response curve [3]
CCC(=O)N1CCOc2c(cc(-c3cc(OC)cc(OC)c3)cc2C(=O)N[C@H]2CCCN(C)C2)C1	463	500	550
CC1(C)Cc2c(-c3ccccc3)c(-c3ccc(Cl)cc3)c(CC(=O)O)n2C1	516	475	559
Cc1ccc(-c2nc(N)nc3c2nnn3Cc2cccc(CO[C@H]3CCOC3)n2)o1	561	520	569
CN(C)CCc1c[nH]c2ccc(C[S+](=O)([O-])N3CCCC3)cc12	513	490	612
C[C@H](CCC(=O)O)[C@H]1CCC2C3C[C@H](O)[C@@H]4C[C@H](O)CC[C@]4(C)C3CC[C@@]21C (stereo partly drawn)	470	454	501
C[N+]1(C)[C@@H]2CC(OC(=O)[C@H](CO)c3ccccc3)C[C@H]1[C@@H]1O[C@@H]12 (stereo partly drawn)	500	531	556
Cc1nc2ccc(-n3ncc(C(=O)c4cc5ccccc5[nH]4)c3N)cc2[nH]1	519	550	595
O=C1N\C=N/C2=C1C=N[NH]2	557	522	531
NC[C@H]1O[C@H](O[C@@H]2[C@H](O)[C@@H](O[C@H]3O[C@H](CO)[C@@H](O)[C@H](N)[C@H]3O)[C@H](N)C[C@@H]2N)[C@H](O)[C@@H](O)[C@@H]1O	520	472	583
CC(=O)Nc1ccc(O)cc1	445	348	467
OCCn1cc(-c2cnc3nnn(Cc4ccc5ncccc5c4)c3n2)cn1	543	497	600
C[C@]1(c2nc3c(C(N)=O)cccc3[nH]2)CCCN1	521	495	564
Cc1cccc(-c2[nH]c(CNc3ccccc3F)nc2-c2ccc3ncnn3c2)n1	463	483	510
C/C=C/C[C@@H](C)C(=O)[C@H]1C(=O)N[C@@H](C(C)C)C(=O)N(C)CC(=O)N(C)[C@@H](CC(C)C)C(=O)N[C@@H](C(C)C)C(=O)N(C)[C@@H](CC(C)C)C(=O)N[C@@H](C)C(=O)N[C@H](C)C(=O)N(C)[C@@H](CC(C)C)C(=O)N(C)[C@@H](CC(C)C)C(=O)N(C)[C@@H](C(C)C)C(=O)N1C	524	534	633
Nc1nc(F)nc2c1ncn2[C@@H]1O[C@H](CO)[C@@H](O)[C@@H]1O	510	528	577
Cc1c(F)cc(C(=O)NC2CC2)cc1-c1ccc(C(=O)NCC(C)(C)C)cn1	394	389	427
CCOc1ccccc1N/N=C1/C(=O)N(c2nc(-c3ccccc3)cs2)N=C1C	570	569	639
C[S+](=O)([O-])c1ccc(-c2nnc(/C=C/c3nnc(-c4ccc(C#N)cc4)o3)n2-c2ccccc2Cl)nc1	524	537	603
